Assay results from ChEMBL document CHEMBL4152218, “Novel hydrazide-hydrazone and amide substituted coumarin derivatives: Synthesis, cytotoxicity screening, microarray, radiolabeling and in vivo pharmacokinetic studies” (Eur J Med Chem, 2018).
Activity calls are given as the source filed them. The calls are words filed in the database; no cut-off is given here.

Experiments:
HepG2 [1] = test: Effect on CYP1A1 gene expression in human HepG2 cells at IC50 after 48 hrs by microarray analysis; assay type: ADME, cell-based; settings: hepg2, 48 h
HepG2 [2] = test: Effect on CASP2 gene expression in human HepG2 cells at IC50 after 48 hrs by microarray analysis; assay type: functional, cell-based
HepG2 [3] = test: Effect on TOP2B gene expression in human HepG2 cells at IC50 after 48 hrs by microarray analysis; assay type: functional, cell-based
PANC-1 [4] = test: Effect on CAMK2N1 gene expression in human PANC1 cells at IC50 after 48 hrs by microarray analysis; assay type: functional, cell-based
HepG2 [5] = test: Effect on SRXN1 gene expression in human HepG2 cells at IC50 after 48 hrs by microarray analysis; assay type: functional, cell-based
HepG2 [6] = test: Effect on DKK1 gene expression in human HepG2 cells at IC50 after 48 hrs by microarray analysis; assay type: functional, cell-based
HepG2 [7] = test: Effect on PCDH21 gene expression in human HepG2 cells at IC50 after 48 hrs by microarray analysis; assay type: functional, cell-based
PANC-1 [8] = test: Effect on PCNA gene expression in human PANC1 cells at IC50 after 48 hrs by microarray analysis; assay type: functional, cell-based
PANC-1 [9] = test: Effect on RBM39 gene expression in human PANC1 cells at IC50 after 48 hrs by microarray analysis; assay type: functional, cell-based
HepG2 [10] = test: Effect on WNT2B gene expression in human HepG2 cells at IC50 after 48 hrs by microarray analysis; assay type: functional, cell-based
PANC-1 [11] = test: Induction of apoptosis in human PANC1 cells assessed as increase in caspase-3/7 activity after 24 hrs by Caspase-Glo 3/7 luminescence assay; assay type: functional, cell-based
HepG2 [12] = test: Effect on DIDO1 gene expression in human HepG2 cells at IC50 after 48 hrs by microarray analysis; assay type: functional, cell-based
HepG2 [13] = test: Effect on CASP7 gene expression in human HepG2 cells at IC50 by SYBR green-dye based qRT-PCR analysis relative to beta-actin; assay type: functional
HepG2 [14] = test: Effect on TNFRSF 19 gene expression in human HepG2 cells at IC50 after 48 hrs by microarray analysis; assay type: functional, cell-based
HepG2 [15] = test: Effect on GADD45G gene expression in human HepG2 cells at IC50 after 48 hrs by microarray analysis; assay type: functional, cell-based
HepG2 [16] = test: Effect on TMEM132D gene expression in human HepG2 cells at IC50 after 48 hrs by microarray analysis; assay type: functional, cell-based
PANC-1 [17] = test: Effect on TDG gene expression in human PANC1 cells at IC50 after 48 hrs by microarray analysis; assay type: functional, cell-based

O=C(N/N=C/c1cc2ccccc2nc1Cl)c1cc2cc(Br)ccc2oc1=O
Activity (HepG2 [1]): Active | Activity (HepG2 [2]): Active | Activity (HepG2 [3]): Active | Activity (PANC-1 [4]): Active | Activity (HepG2 [5]): Active | Activity (HepG2 [6]): Active | Activity (HepG2 [7]): Active | Activity (PANC-1 [8]): Active | Activity (PANC-1 [9]): Active | Activity (HepG2 [10]): Active | Activity (PANC-1 [11]): Dose-dependent effect | Activity (HepG2 [12]): Active | fold change (FC) (HepG2 [13]): 2.45 | Activity (HepG2 [14]): Active | Activity (HepG2 [15]): Active | Activity (HepG2 [16]): Active | Activity (PANC-1 [17]): Active
